Assay results published in ChEMBL document CHEMBL5390304, “Phenyl-quinoline-xxo-butyric Acid Inhibitors of Histone Lysine Demethylase for the Treatment of Cancer” (ACS Med Chem Lett, 2023).

How the values were obtained:
[1] = biological target: Lysine-specific demethylase 5B (Homo sapiens, UniProt Q9UGL1); experiment: Inhibition of human recombinant KDM5B assessed as decarboxylation of [1-14C] alphaKG by measuring 14CO2 release using H3K4me3 as substrate incubated for 1 hr
[2] = biological target: T1, Lysine-specific demethylase 4A (Homo sapiens, UniProt O75164); experiment: Inhibition of human recombinant KDM4A assessed as decarboxylation of [1-14C] alphaKG at pH 7.4 using H3K9me3 as substrates incubated for 1 hr
T1 sequence (O75164 whole entry): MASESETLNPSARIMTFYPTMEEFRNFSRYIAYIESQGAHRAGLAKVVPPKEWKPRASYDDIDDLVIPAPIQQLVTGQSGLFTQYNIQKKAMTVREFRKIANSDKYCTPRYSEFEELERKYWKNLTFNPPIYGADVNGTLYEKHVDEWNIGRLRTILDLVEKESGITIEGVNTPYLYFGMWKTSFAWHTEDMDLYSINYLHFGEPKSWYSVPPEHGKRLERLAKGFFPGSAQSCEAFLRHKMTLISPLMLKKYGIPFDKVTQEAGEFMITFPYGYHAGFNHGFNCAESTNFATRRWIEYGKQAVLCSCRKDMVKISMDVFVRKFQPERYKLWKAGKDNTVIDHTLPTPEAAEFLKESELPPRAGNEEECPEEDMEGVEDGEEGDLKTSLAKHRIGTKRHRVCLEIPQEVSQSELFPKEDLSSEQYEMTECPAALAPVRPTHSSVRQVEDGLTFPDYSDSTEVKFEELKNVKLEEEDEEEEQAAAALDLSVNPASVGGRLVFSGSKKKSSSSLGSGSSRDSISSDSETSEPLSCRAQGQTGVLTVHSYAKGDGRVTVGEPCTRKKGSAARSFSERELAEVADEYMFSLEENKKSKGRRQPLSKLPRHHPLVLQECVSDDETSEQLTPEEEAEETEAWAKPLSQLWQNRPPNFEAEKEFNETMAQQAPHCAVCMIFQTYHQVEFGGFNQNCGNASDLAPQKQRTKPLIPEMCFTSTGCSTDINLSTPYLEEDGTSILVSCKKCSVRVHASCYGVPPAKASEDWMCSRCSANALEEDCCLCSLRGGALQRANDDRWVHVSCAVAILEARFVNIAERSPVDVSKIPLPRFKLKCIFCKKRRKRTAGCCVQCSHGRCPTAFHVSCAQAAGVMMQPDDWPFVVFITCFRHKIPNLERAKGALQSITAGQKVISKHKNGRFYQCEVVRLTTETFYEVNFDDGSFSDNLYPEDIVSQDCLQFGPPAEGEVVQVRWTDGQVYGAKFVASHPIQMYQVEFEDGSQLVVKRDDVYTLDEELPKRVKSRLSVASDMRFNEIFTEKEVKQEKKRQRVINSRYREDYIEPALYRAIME

Chain of Lysine-specific demethylase 5B (Q9UGL1 whole entry): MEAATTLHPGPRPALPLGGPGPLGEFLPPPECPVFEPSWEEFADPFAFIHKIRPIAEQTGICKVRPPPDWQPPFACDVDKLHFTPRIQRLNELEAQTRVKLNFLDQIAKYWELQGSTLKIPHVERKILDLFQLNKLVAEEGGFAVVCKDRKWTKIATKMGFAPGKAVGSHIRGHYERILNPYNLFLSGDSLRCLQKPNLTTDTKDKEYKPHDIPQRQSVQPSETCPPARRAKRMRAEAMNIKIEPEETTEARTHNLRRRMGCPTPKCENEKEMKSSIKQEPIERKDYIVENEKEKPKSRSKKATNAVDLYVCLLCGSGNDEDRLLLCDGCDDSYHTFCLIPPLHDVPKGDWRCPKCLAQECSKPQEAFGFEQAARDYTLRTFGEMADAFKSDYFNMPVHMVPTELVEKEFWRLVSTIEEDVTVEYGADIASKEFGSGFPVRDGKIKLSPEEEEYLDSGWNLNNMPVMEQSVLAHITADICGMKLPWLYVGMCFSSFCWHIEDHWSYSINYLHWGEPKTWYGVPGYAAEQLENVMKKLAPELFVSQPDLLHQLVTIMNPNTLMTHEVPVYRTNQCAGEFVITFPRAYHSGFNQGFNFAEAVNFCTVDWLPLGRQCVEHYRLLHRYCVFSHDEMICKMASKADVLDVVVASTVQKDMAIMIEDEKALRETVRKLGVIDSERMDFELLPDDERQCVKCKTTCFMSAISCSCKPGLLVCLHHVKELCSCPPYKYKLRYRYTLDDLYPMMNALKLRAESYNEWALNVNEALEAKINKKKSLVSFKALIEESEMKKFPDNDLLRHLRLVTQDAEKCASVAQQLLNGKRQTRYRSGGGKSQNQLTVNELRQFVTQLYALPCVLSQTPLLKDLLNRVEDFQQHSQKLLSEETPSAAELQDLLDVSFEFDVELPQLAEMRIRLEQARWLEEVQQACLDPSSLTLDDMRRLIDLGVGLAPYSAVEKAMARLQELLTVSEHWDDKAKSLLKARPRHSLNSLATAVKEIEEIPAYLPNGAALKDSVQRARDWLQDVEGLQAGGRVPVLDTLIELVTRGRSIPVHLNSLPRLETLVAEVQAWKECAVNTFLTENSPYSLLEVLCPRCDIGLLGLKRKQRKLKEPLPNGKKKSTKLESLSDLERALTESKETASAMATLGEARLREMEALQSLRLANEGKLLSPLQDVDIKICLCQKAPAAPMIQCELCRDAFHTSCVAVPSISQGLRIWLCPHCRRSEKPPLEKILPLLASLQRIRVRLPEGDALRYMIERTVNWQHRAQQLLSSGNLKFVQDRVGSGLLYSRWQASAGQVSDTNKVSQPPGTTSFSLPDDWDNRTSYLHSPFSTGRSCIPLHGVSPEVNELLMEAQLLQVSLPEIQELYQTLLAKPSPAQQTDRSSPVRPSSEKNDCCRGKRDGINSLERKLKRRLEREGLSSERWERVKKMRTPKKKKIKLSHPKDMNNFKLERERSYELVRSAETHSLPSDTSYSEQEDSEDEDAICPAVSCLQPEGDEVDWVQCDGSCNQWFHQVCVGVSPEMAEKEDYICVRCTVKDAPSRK

IC50 [1] [nM] | IC50 [2] [nM] | SMILES
230 | 22000 | Cc1cccc(-c2ccc3c(C#N)c(O)c(C(=O)CCC(=O)O)nc3c2)c1
150 | > 40000 | N#Cc1c(O)c(C(=O)CCC(=O)O)nc2cc(Sc3ccccc3)ccc12
310 | > 40000 | N#Cc1c(O)c(C(=O)CCC(=O)O)nc2ccc(-c3ccccc3)cc12
970 | > 40000 | N#Cc1c(O)c(C(=O)CCC(=O)O)nc2ccc(Cc3ccccc3)cc12
90 | 3900 | N#Cc1c(O)c(C(=O)CCC(=O)O)nc2cc(-c3ccccc3)ccc12
220 | > 40000 | COc1ccc(-c2ccc3c(C#N)c(O)c(C(=O)CCC(=O)O)nc3c2)cc1
370 | > 40000 | Cc1cc(C)cc(-c2ccc3c(C#N)c(O)c(C(=O)CCC(=O)O)nc3c2)c1
> 40000 | > 40000 | O=C(O)CCC(=O)c1nc2cc(-c3ccccc3)ccc2cc1O
130 | 7900 | N#Cc1ccc(-c2cccc3c(C#N)c(O)c(C(=O)CCC(=O)O)nc23)cc1
130 | 40000 | N#Cc1c(O)c(C(=O)CCC(=O)O)nc2ccccc12
240 | > 40000 | N#Cc1c(O)c(C(=O)CCC(=O)O)nc2cc(Cc3ccccc3)ccc12
